Measurements reported in patent US4975434A, “Antiviral and anticancer cyclopentenyl cytosine” (priority 1989, dated 1990).
Values after ≈ are worked out from the molar mass of the structure shown. Values joined by “and” are separate entries in the source; they are usually repeats but may differ in a detail not shown here. Equal entries are not always repeated. Where two headings read alike, the source gives them in different places.

What was measured:
[1] = test system: Janapese Encephalitis virus, strain Najayama; experiment: Antiviral test in vitro, Japanese encephalitis virus; type: cell-based, Japanese encephalitis virus; host Vero cells
[2] = test system: Punta Toro virus, strain Adames; experiment: microbe, parasite or virus in culture; type: cell-based, Punta Toro virus; host Vero cells
[3] = test system: Influenza (Hong Kong), strain A2 /Aichi/2/68; experiment: microbe, parasite or virus in culture; type: cell-based, Influenza virus; host MDCK (Madin Darby canine kidney cells)
L1210 leukemia [4] = settings: cited from earlier work; for increase in life span: literature values
[5] = test system: Herpes simplex type 1 (TK+), strain E-377; experiment: Cytopathogenic inhibition test, HSV-1 TK+; type: cell-based; settings: for IC50: Human alphaherpesvirus 1, inhibition of virus-induced cytopathogenic effects, read-out: ID50 (the source's name); for IC50 / VR (virus rating): Vero cells, strain E-377
[6] = test system: Herpes simplex type 2, strain MS; experiment: Cytopathogenic inhibition test, HSV-2; type: cell-based; settings: Vero cells, strain MS; for IC50: Human alphaherpesvirus 2, inhibition of virus-induced cytopathogenic effects, read-out: ID50 (the source's name)
[7] = test system: Herpes simplex type 1 (TK-), strain HF; experiment: microbe, parasite or virus in culture; type: cell-based
[8] = test system: Vaccinia, strain Lederle CA; experiment: microbe, parasite or virus in culture; type: cell-based
[9] = test system: vaccinia virus (IHD strain); type: in vivo, mouse (CD-I); settings: Ara-A 300 mg/kg, QD 1-7 subcutaneous; PBS control 45.8
H.Ep.-2 cells = settings: literature; cited from earlier work
L1210 tumor cells = settings: literature; cited from earlier work
adenosine deaminase = settings: literature; cited from earlier work
[10] = test system: quiescent normal cells; malignant cell lines; settings: subtoxic concentrations; literature; cited from earlier work
[11] = test system: phosphorylation and deamination; settings: cited from earlier work
[12] = test system: Vesicular Stomatitis virus, strain Indiana; type: cell-based; settings: L929 cells, strain Indiana; two determinations
[13] = test system: enzyme which hydrolyzes S-adenosyl-L-homocysteine (AdoHcy); settings: literature; cited from earlier work
tumors [14] = experiment: Antitumor activity (general statement)
tumors [15] = settings: literature; cited from earlier work
[16] = test system: Cytomegalovirus, strain AD 169; experiment: Cytomegalovirus (CMV) Yield Reduction Assay; type: cell-based
[17] = test system: Varicella-Zoster virus, isolate DM625; experiment: Varicella-Zoster Virus (VZV) Plaque Reduction Assay; type: cell-based; settings: Human alphaherpesvirus 3, 144 h, Huf cells
[18] = test system: MRC5 (diploid human embryonic lung cells); experiment: Toxicity to MRC5 host cells (gross cell morphology) in the CMV assay; settings: 320 μg/ml
CTP synthesase = experiment: Inhibition of CTP synthesis (CTP synthesase); type: biochemical
[19] = test system: Herpes simplex type 1 (TK-), strain HF; settings: literature; cited from earlier work
Rhinovirus 1A = settings: literature; cited from earlier work
several DNA viruses = settings: literature; cited from earlier work
influenza viruses = settings: literature; cited from earlier work
two other RNA viruses = settings: literature; cited from earlier work
L1210 leukemia [20] = experiment: In vivo antitumor test, L1210 leukemia in mice; settings: Table IV, QD1-9, terminated day 60
LOX Melanoma = experiment: Human tumor xenograft in athymic mice, LOX melanoma (intraperitoneal); settings: for % ILS: Table IV, QD1-9
MX-1 Mammary = experiment: Human tumor xenograft in athymic mice, MX-1 mammary (subrenal capsule); settings: for % tumor weight inhibition: Table IV, QD1-9, day 0 to day 11
cells = settings: literature; cited from earlier work
[21] = test system: Yellow Fever virus, strain Asibi; experiment: microbe, parasite or virus in culture; type: cell-based, Yellow Fever virus; host Vero cells

Question: With `NC(=O)c1ncn([C@@H]2O[C@H](CO)[C@@H](O)[C@H]2O)n1` [Ribavirin, reference compound] as the compound, how does the IC50 ([1]; Japanese encephalitis virus, Vero, read-out: ID50) read?
Answer: 3 µg/mL (≈ 12.3 µM)

Question: What about the “VR (virus rating)” value ([1]; Vero cells, strain Najayama) of the same compound?
Answer: 2.4

Question: What about the “VR (virus rating)” value [2] of the same compound?
Answer: 1.8

Question: And the IC50 ([2]; Punta Toro virus, Vero, read-out: ID50)?
Answer: 20.1 µg/mL (≈ 82.3 µM)

Question: And the “VR (virus rating)” value [3]?
Answer: 3.6

Question: And the IC50 ([3]; MDCK, in Canis lupus familiaris, read-out: ID50)?
Answer: 18.7 µg/mL (≈ 76.6 µM)

Question: Which “increase in life span” value (L1210 leukemia [4]) does the source give for `Nc1ccn(C2CC(CO)C(O)C2O)c(=O)n1` (stereo not drawn) ["ara"-analogue] here?
Answer: 104%

Question: What about the “activity against L1210 leukemia” value (L1210 leukemia [4]; literature, J. Pharm. Chem., 68, 668 (1979)) of the same compound?
Answer: activity

Question: For `Nc1ncnc2c1ncn2[C@@H]1O[C@H](CO)[C@@H](O)[C@@H]1O` [Ara-A, arabinosyl adenine, reference compound], which IC50 [5] is on record?
Answer: 13.6 µg/mL (≈ 50.9 µM)

Question: And the “VR (virus rating)” value [5]?
Answer: 1.8

Question: What about the IC50 [6] of the same compound?
Answer: 49.9 µg/mL (≈ 187 µM)

Question: What about the “VR (virus rating)” value [6] of the same compound?
Answer: 1.3

Question: And the IC50 ([7]; Human alphaherpesvirus 1, Vero, in Chlorocebus sabaeus, read-out: ID50, Vero cells, strain HF, inhibition of virus-induced cytopathogenic effects, two determinations)?
Answer: 2.1 µg/mL (≈ 7.86 µM)

Question: And the “VR (virus rating)” value ([7]; Vero cells, strain HF, two determinations)?
Answer: 3.3 and 2.9

Question: What about the IC50 ([8]; Orthopoxvirus vaccinia, Vero, in Chlorocebus sabaeus, read-out: ID50) of the same compound?
Answer: 9.8 µg/mL (≈ 36.7 µM)

Question: And the “VR (virus rating)” value ([8]; Vero cells, strain Lederle CA)?
Answer: 3.1

Question: What about the “Pox Count (mean value, 20 mice)” value [9] of the same compound?
Answer: 2.8

Question: Which cytotoxicity (H.Ep.-2 cells) does the source give for `Nc1ncnc2c1ncn2[C@@H]1C[C@H](CO)[C@@H](O)[C@H]1O` [C-Ado] here?
Answer: highly cytotoxic

Question: And the cytotoxicity (L1210 tumor cells)?
Answer: highly cytotoxic

Question: What about the “affinity for adenosine deaminase relative to adenosine” value (adenosine deaminase) of the same compound?
Answer: a hundredfold lower

Question: And the “activity in the in vivo mouse L1210 model” value (L1210 leukemia [4]; literature)?
Answer: inactivity in the in vivo mouse L1210 model system

Question: And the “effect on malignant cell lines” value [10]?
Answer: inhibited growth

Question: What about the “effect on quiescent normal cells” value [10] of the same compound?
Answer: induced cell proliferation

Question: Which phosphorylation and deamination ([11]; literature) does the source give for `Nc1nccc2c1ncn2[C@@H]1O[C@H](CO)[C@@H](O)[C@H]1O` [3-deazaadenosine] here?
Answer: resistance towards phosphorylation and deamination

Question: Which “VR (virus rating)” value [12] does the source give for `Nc1nccc2c1ncn2[C@@H]1C[C@H](CO)[C@@H](O)[C@H]1O` [3-Deazaaristeromycin, 3-deazaaristeromycin, reference compound] here?
Answer: 2.1 and 3.0

Question: What about the “inhibition of AdoHcy hydrolase” value [13] of the same compound?
Answer: very potent and specific inhibitor

Question: What about the phosphorylation and deamination [11] of the same compound?
Answer: resistance towards phosphorylation and deamination

Question: For `Nc1ccn([C@@H]2C=C(CO)[C@@H](O)[C@@H]2O)c(=O)n1`, which antitumor activity (tumors [14]) is on record?
Answer: complete lack of antitumor activity

Question: For `Nc1ccn([C@@H]2O[C@H](CO)[C@@H](O)[C@@H]2O)c(=O)n1` [ara-C, cytosine arabinoside], which “activity against human and animal tumors” value (tumors [15]) is on record?
Answer: well-known activity

Question: What does the source list for `Nc1nc2c(ncn2COC(CO)CO)c(=O)[nH]1` [DHPG, 9(1,3-Dihydroxy-2-propoxymethyl)guanine, reference compound]?
Answer: log reduction at 1 µg/mL ([16]; Human betaherpesvirus 5, 144 h, 1.0 μg/ml, MRC5 cells, read-out: Reduction in Virus Yield): 1.1; log reduction at 10 µg/mL ([16]; Human betaherpesvirus 5, 144 h, 10 μg/ml, MRC5 cells, read-out: Reduction in Virus Yield): 3.8; log reduction at 32 µg/mL ([16]; Human betaherpesvirus 5, 144 h, 32 μg/ml, MRC5 cells, read-out: Reduction in Virus Yield): 5.3; log reduction at 100 µg/mL ([16]; Human betaherpesvirus 5, 144 h, 100 μg/ml, MRC5 cells, read-out: Reduction in Virus Yield): 5.3; log reduction at 320 µg/mL ([16]; Human betaherpesvirus 5, 144 h, 320 μg/ml, MRC5 cells, read-out: Reduction in Virus Yield): 5.3; antiviral activity ([16]; result in words): superior; inhibition at 1 µg/mL ([17]; 1.0 μg/ml): 44%; inhibition at 3.2 µg/mL ([17]; 3.2 μg/ml): 46%; inhibition at 10 µg/mL ([17]; 10 μg/ml): 69%; inhibition at 32 µg/mL ([17]; 32 μg/ml): 85%; inhibition at 100 µg/mL ([17]; 100 μg/ml): 100%; inhibition at 320 µg/mL ([17]; 320 μg/ml): 100%; Host cell toxicity (gross cell morphology) [18]: Very slightly toxic

Question: Which IC50 [5] does the source give for `Nc1nc2c(ncn2COCCO)c(=O)[nH]1` [Acyclovir] here?
Answer: 0.7 µg/mL (≈ 3.11 µM)

Question: And the “VR (virus rating)” value [5]?
Answer: 6.7

Question: And the antiviral activity ([5]; result in words)?
Answer: more active that CPE-C

Question: And the IC50 [6]?
Answer: 5.3 µg/mL (≈ 23.5 µM)

Question: What about the “VR (virus rating)” value [6] of the same compound?
Answer: 4.5

Question: What about the antiviral activity ([7]; result in words) of the same compound?
Answer: inactive

Question: For `Nc1ccn([C@@H]2C=C(COP(=O)(O)OP(=O)(O)OP(=O)(O)O)[C@@H](O)[C@H]2O)c(=O)n1` [triphosphate metabolite of CPE-C], which “inhibition of CTP-synthesase” value (CTP synthesase; triphosphate isolated from L1210 cell extracts) is on record?
Answer: responsible for the inhibition of CTP-synthesase

Question: For `Nc1ccn([C@@H]2C[C@H](CO)[C@@H](O)[C@H]2O)c(=O)n1` [Carbodine], which “potency against HSV-1 TK- vs TK+” value [19] is on record?
Answer: more potent against a strain of the HSV-1 virus deficient in its ability to induce thymidine kinase

Question: And the antiviral activity (Rhinovirus 1A)?
Answer: Slight carbodine activity

Question: What about the antiviral activity (several DNA viruses) of the same compound?
Answer: Good activity

Question: What about the antiviral activity (influenza viruses) of the same compound?
Answer: very effective

Question: What about the “increase in life span” value (L1210 leukemia [4]) of the same compound?
Answer: 82%

Question: And the antiviral activity (two other RNA viruses)?
Answer: Slight carbodine activity

Question: Which “% ILS” value (L1210 leukemia [20]; 3-Deazauridine 25 mg/kg) does the source give for `O=C1C=CN([C@@H]2O[C@H](CO)[C@@H](O)[C@H]2O)C(=O)C1` [3-Deazauridine, 3-deazauridine, reference compound] here?
Answer: 72%

Question: And the “% ILS” value (L1210 leukemia [20]; 3-Deazauridine 50 mg/kg)?
Answer: 61%

Question: What about the “% ILS” value (L1210 leukemia [20]; 3-Deazauridine 100 mg/kg) of the same compound?
Answer: 80%

Question: What about the “% ILS” value (LOX Melanoma; 3-Deazauridine 200 mg/kg) of the same compound?
Answer: 5%

Question: And the “% ILS” value (LOX Melanoma; 3-Deazauridine 300 mg/kg)?
Answer: 4%

Question: And the “tumor burden at the end of treatment” value (LOX Melanoma; in vivo)?
Answer: three-log10 increase in tumor burden

Question: What about the activity (LOX Melanoma; result in words) of the same compound?
Answer: inactive

Question: And the “inhibition of CTP synthesis” value (CTP synthesase; result in words)?
Answer: powerful inhibitors of CTP synthesis

Question: And the “% tumor weight inhibition” value (MX-1 Mammary; 3-Deazauridine 200 mg/kg)?
Answer: 11%

Question: What about the “% tumor weight inhibition” value (MX-1 Mammary; 3-Deazauridine 300 mg/kg) of the same compound?
Answer: 64%

Question: What about the activity (MX-1 Mammary; result in words) of the same compound?
Answer: inactive

Question: With `Nc1ncnc2c1ncn2[C@@H]1C=C(CO)[C@@H](O)[C@H]1O` [Neplanocin A, 9[(1'R,2'S,3'R)-4'-Hydroxymethyl-2',3'dihydroxy-4 cyclopenten-1'-yl]adenine] as the compound, how does the “inhibition of AdoHcy hydrolase” value [13] read?
Answer: potent inhibitor

Question: What about the phosphorylation and deamination ([11]; literature) of the same compound?
Answer: readily phosphorylated

Question: And the “side effects including cytotoxicity” value (cells)?
Answer: multiplicity of side effects including cytotoxicity

Question: Which “VR (virus rating)” value ([21]; Vero cells, strain Asibi) does the source give for `c1c[se]cn1` [Selenazole, reference compound] here?
Answer: 2.4

Question: And the IC50 ([21]; Yellow fever virus, Vero, read-out: ID50)?
Answer: 1.8 µg/mL (≈ 13.6 µM)

Question: And the “TI (therapeutic index)” value ([21]; minimum toxic drug concentration / ID50, Vero cells)?
Answer: 0.6
